Measured values as given in PMC8838787, “The Antiproliferative and Apoptotic Effects of a Novel Quinazoline Carrying Substituted-Sulfonamides: In Vitro and Molecular Docking Study” (Molecules, 2022).

Legend:
Bcl-2 = experiment: Western blot, Bcl-2 protein; assay type: cell-based, human; conditions: MCF-7, 1.25, 2.5 and 5 μM, 24 h, vs control cells
From the text: (§1) We next used reverse transcription polymerase chain reaction (RT-PCR) and Western blot analysis to look at Bax (proapoptotic), Bcl-2 (antiapoptotic) and caspase 7 (executioner caspase) expression at gene and protein level as an additional marker of apoptosis occurrence. In fact, apoptotic cell death is mostly directed by the levels of Bcl-2 family, whether they are pro-apoptotic or antiapoptotic and targeting these molecules as a therapeutic strategy is continuously under development. As predicted, we observed an upregulation in the expression of Bax in MCF-7 treated cells to (1.7-, 2- and 2.4-fold) with compound 4d and to (1.2-, 1.4- and 1.6-fold) with compound 4f at (1.25, 2.5 and 5 µM) respectively (Figure 6). […] This shifting in Bax to Bcl-2 ratio usually started caspases activation which plays a critical role in apoptosis execution. […]
(§2) MCF-7 cells were plated in six well plates at the density of 0.5 × 10^6 and kept for adherence for overnight. […] Total protein was measured by using Bio-Rad Bradford kit and then 35 µg of the total protein was run on a 12% SDS-PAGE and transferred to a nitrocellulose membrane. […] After incubation, membranes were washed three times with TBST buffer and then were ready for immunodetection. […]

[1] = test system: MCF-7 (breast) cancer cells; experiment: MTT cell viability assay, MCF-7; assay type: cell-based, human; conditions: Homo sapiens, MCF7, 48 h, average ± SD (n = 3)
Protocol: (§3) Compounds 4a–n were subjected to the cytotoxicity screening of the cell lines MCF-7 (breast), LoVo (colon), HepG2 (liver) and A549 (lung) carcinoma cells as well as HUVEC normal cell lines. The MTT assay was employed to assess cytotoxicity after 48 h of treatment with different concentrations of each compound and doxorubicin was used as a reference drug. The results were presented in Table 1 as growth inhibitory concentration (IC50 values).
(§4) Cell viability was determined using 3-(4,5-dimethylthiazol-2-yl)-2,5-diphenyl tetrazolium bromide (MTT) assay as stated previously. In brief, A549 (lung), HepG2 (liver), LoVo (colon), MCF-7 (breast) cancer cells as well as normal cells (HUVEC) were seeded in 96-well plates (10^5 per well) and compounds were added in a different final concentration. All cells were treated for 48 h, and then 10μL of MTT reagent (5 mg/mL) was added to each well and further incubated for 4 h. Thereafter, 0.1 mL of acidified isopropanol was added to solubilize formazan product and the developed color was measured at 570 nm in Microplate ELISA Reader (BioTek, Elx-800, Winooski, VT, USA). The IC50 values (concentration required for 50% inhibition of cell viability) were calculated using dose response curve. Cell viability was calculated as = (Ab Treated/Ab Control) × 100.
(§5) The A549, HepG2, LoVo and MCF-7 cancer cell lines were obtained from the German Collection of Microorganisms and Cell Cultures (DSMZ) (Braunschweig, Germany). For Human umbilical vein endothelial cells (HUVEC cells), it was purchased from American Type Culture Collection (16549; Cat no. PCS-100-010; ATTCC, Manassas, VA, USA).

[2] = test system: LoVo (colon) cancer cells; experiment: MTT cell viability assay, LoVo; assay type: cell-based; conditions: Homo sapiens, 48 h, average ± SD (n = 3)
Protocol: as §3, §4, §5

HUVEC normal cells = experiment: MTT cell viability assay, normal HUVEC; assay type: cell-based; conditions: Homo sapiens, 48 h, average ± SD (n = 3)
Protocol: as §3, §4, §5

[3] = test system: HepG2 (liver) cancer cells; experiment: MTT cell viability assay, HepG2; assay type: cell-based; conditions: Homo sapiens, 48 h, average ± SD (n = 3)
Protocol: as §3, §4, §5

caspase 7 [4] = experiment: Western blot, caspase 7 protein; assay type: cell-based, human; conditions: 24 h, in comparison to the control
From the text: (§6) We next used reverse transcription polymerase chain reaction (RT-PCR) and Western blot analysis to look at Bax (proapoptotic), Bcl-2 (antiapoptotic) and caspase 7 (executioner caspase) expression at gene and protein level as an additional marker of apoptosis occurrence. In fact, apoptotic cell death is mostly directed by the levels of Bcl-2 family, whether they are pro-apoptotic or antiapoptotic and targeting these molecules as a therapeutic strategy is continuously under development. As predicted, we observed an upregulation in the expression of Bax in MCF-7 treated cells to (1.7-, 2- and 2.4-fold) with compound 4d and to (1.2-, 1.4- and 1.6-fold) with compound 4f at (1.25, 2.5 and 5 µM) respectively (Figure 6). […] This shifting in Bax to Bcl-2 ratio usually started caspases activation which plays a critical role in apoptosis execution. Among all caspases, caspase 7 is considered as one of the most crucial executioner caspases that mediate cell death, and its expression strongly correlates with apoptosis stimulation.
MCF-7 cells were plated in six well plates at the density of 0.5 × 10^6 and kept for adherence for overnight. On the next day, complete media was replaced with the fresh one and treated the cells with compounds 4d and 4f for 24 h at various concentrations. After 24 h of treatment, cells were harvested and washed twice with 1× PBS before adding the lysis buffer (20 mM Tris pH 7.5, 150 mM Nacl, 1 mM Na2EDTA, 1 mM EGTA, 1% Triton X100, 1 μg/mL Leupeptin and 100 µM phenylmethylsulfonyl fluoride—PMSF) and kept it for 1 h on ice, with intermittent vortex mixing every 10 min. The samples were centrifuged at 13,000 rpm at 4 °C for 15 min and then the supernatants were transferred into new tubes. Total protein was measured by using Bio-Rad Bradford kit and then 35 µg of the total protein was run on a 12% SDS-PAGE and transferred to a nitrocellulose membrane. The membrane was blocked with 5% BSA in TBST (150 mM Nacl, 20 mM Tris base and 0.1% Tween 20) for 2 h at room temperature and then washed three times with TBST buffer. Then the membrane was incubated with the desired antibodies (p53, Bcl-2, Bax, caspase7 and β-actin) (1:200, Santa Cruz Biotecnology, Inc., Dallas, TX, USA) and kept on a rocker at 4 °C overnight. On the next day, the membrane was washed three times with TBST buffer and then incubated with horseradish peroxidase-conjugated secondary antibody (1:3000) for 1 h at room temperature. After incubation, membranes were washed three times with TBST buffer and then were ready for immunodetection. For immunodetection, membranes were incubated with ECL Western blotting detecting reagents (Amersaham Pharmacia Biotech Inc., Zurich, Switzerland) and then bands were obtained by exposing to X-ray films (Amersham).

Bax [5] = experiment: RT-PCR of apoptotic genes, Bax; assay type: cell-based, human; conditions: 24 h, vs control, normalized to β-actin
From the text: as §6
(§7) The MCF-7 cells (0.1 × 10^6) in 12 well plates were treated with different concentrations of compounds 4d and 4f for 24 h and untreated cells were used as a control. After 24 h of treatment, cell culture media was removed and the cells were lysed with Trizol (Invitrogen, Waltham, MA, USA), and total RNA was extracted from all the samples [42]. The RNA was estimated by Nano-drop and 1 µg of RNA was used in the cDNA synthesis. The cDNA was synthesized from RNA by using a cDNA synthesis kit (Invitrogen, Thermo Fisher Scientific, lnc., Waltham, MA, USA) according to the manufacturer’s instruction. After Reverse transcription at 42 °C for 60 min, RT-PCR was performed using 5× Firepol Master Mix ready to load (Solis BioDyne) according to manufacturer’s instruction. RT-PCR was used to analyze the gene expression level of P53, Bcl2, Bax and caspase 7 using specific sets of primers for each gene, while β-actin was utilized as a housekeeping gene. The program was run as follows, initial denaturation at 95 °C for 5 min; denaturation at 95 °C for 30 s; annealing at 55 °C for 45 s; elongation at 72 °C for 45 s (30 Cycles) and final extension at 72 °C for 10 min. The RT-PCR products were electrophoresed on a 1.2% agarose gel containing ethidium bromide and the gel was imaged on a Licor machine.

caspase 7 [6] = experiment: RT-PCR of apoptotic genes, caspase 7; assay type: cell-based, human; conditions: 24 h, relative to untreated cells
From the text: as §6, §7

Bax [7] = experiment: Western blot, Bax protein; assay type: cell-based, human; conditions: MCF-7, 1.25, 2.5 and 5 μM, 24 h, vs control cells
From the text: as §1, §2

IC50 [1] [µM] | IC50 [2] [µM] | IC50 [3] [µM] | Structure (SMILES) | expression of Bcl-2 protein (Western blot, in words) (Bcl-2) | IC50 (HUVEC normal cells) [µM] | caspase 7 protein expression (Western blot) (caspase 7 [4]; MCF-7, 1.25 μM) [fold] | caspase 7 protein expression (Western blot) (caspase 7 [4]; MCF-7, 2.5 μM) [fold] | caspase 7 protein expression (Western blot) (caspase 7 [4]; MCF-7, 5 μM) [fold] | expression of Bax (RT-PCR) (Bax [5]; MCF-7, 1.25 µM) [fold] | expression of Bax (RT-PCR) (Bax [5]; MCF-7, 2.5 µM) [fold] | expression of Bax (RT-PCR) (Bax [5]; MCF-7, 5 µM) [fold] | expression of caspase 7 (RT-PCR) (caspase 7 [6]; MCF-7, 2.5 µM) [fold] | expression of caspase 7 (RT-PCR) (caspase 7 [6]; MCF-7, 5 µM) [fold] | expression of Bax protein (Western blot, in words) (Bax [7])
2.5 ± 0.2 | 6.87 ± 0.62 | 9 ± 0.3 | COc1cccc2c(=O)n(-c3ccc(S(=O)(=O)NCC(=O)Nc4ccc(C)cc4)cc3)c(SCC(=O)Nc3ccc(C)cc3)nc12 [Compound 4d] | downregulated in a dose-dependent manner | 7.8 ± 0.6 | 3 | 3.3 | 3.9 | 1.7 | 2 | 2.4 | 1.35 | 1.58 | markedly increased
5 ± 0.24 | 9.76 ± 1.68 | 11.7 ± 2 | CCc1cccc(NC(=O)CNS(=O)(=O)c2ccc(-n3c(SCC(=O)Nc4cccc(CC)c4)nc4c(OC)cccc4c3=O)cc2)c1 [Compound 4f, N-(3-ethylphenyl)-2-((3-(4-(N-(2-((3-ethylphenyl)amino)-2-oxoethyl)sulfamoyl)-phe-nyl)-8-methoxy-4-oxo-3,4-dihydroquinazolin-2yl)thio)acetamide] | downregulated in a dose-dependent manner | 17.9 ± 0.6 | 1.14 | 1.2 | 1.5 | 1.2 | 1.4 | 1.6 | 1.35 | 1.58 | markedly increased
